The nature of this series: Human HepG2 cell viability assay in 384 well format. Format: toxicity, cell-based. The conditions noted are these: HepG2 cells, read-out: Inhibition. Also on record: dose 125 nL, time 70.5 hour; cytotoxicity at 70.5 h: concentration not given beside the values.
As for `O=C(CCC(=O)N1CCOCC1)NCc1cccnc1-n1cccn1`, the cytotoxicity at 70.5 h is 1.46%.
As for `O=C(NCCc1cccnc1)N1CCCC1c1ccsc1` (stereo unspecified), the figure is -0.435%; as for `CCc1cc(CN(C)C(=O)CN2CC(Cc3ccccc3)CC2=O)on1` (stereo unspecified), 2.31%; as for `Cc1nnc(N2CCCC3(CN(Cc4cccnc4)CCO3)C2)o1` (stereo unspecified), -4.29%.
As for `Cc1noc(C)c1CN(C)Cn1c(=O)oc2ccccc21`, the figure is 39.4%; as for `Cc1nc(N)nc(C)c1CC(=O)N1CCC2(CC1)OCCCC2O` (stereo unspecified), -13.9%; as for `CC(NC(N)=O)C(=O)Nc1ccc(OCc2cccc(F)c2)c(F)c1` (stereo unspecified), -10.3%.
Consider `O=C1CCC2(CCCN(C(=O)NCc3ccccc3)CC2)N1` (stereo unspecified), for which the cytotoxicity at 70.5 h is -8.58%.
With `CNC(=O)c1nc(CN2CCOC(C(F)(F)F)C2)no1` (stereo unspecified) the figure was 28.6%; with `O=C(c1cccn1-c1ccc2c(c1)OCCO2)N1CCCC1`, -11.9%; with `Cc1ccc(-c2ccnc3cc(CC(=O)N4CCN(C)CC4)nn23)cc1`, 0.106%.
With `CCn1cc2c(n1)CN(S(=O)(=O)c1cccnc1)CC2COC` (stereo unspecified) the figure was 1.06%; with `CS(=O)(=O)CCC(=O)N1C[C@@H]2CC[C@H](C1)N(Cc1ccccc1)C2=O`, -8.53%.
As for `CC(C)C1SCC(=O)Nc2c1c(O)nn2C1CCCC1` (stereo unspecified), the figure is -23.1%; as for `Cc1nc(CN2C(=O)CCC23CCN(c2ncccn2)CC3)cs1`, -8.07%; as for `CC(Nc1ccc(Br)cc1)c1nc(C2CC2)no1` (stereo unspecified), -1.22%.
`O=S(=O)(C1CC1)N1CCC2(CN(c3ncccn3)C2)C1`: the cytotoxicity at 70.5 h was found to be 9.33%.
With `Cc1cccc(-c2nc(C)nn2CN2CCC3(CC2)OCCO3)c1` the figure was 11.8%; with `CC(C)(C)n1nc(C2CC2)cc1C(=O)NCC1(C(N)=O)CCOCC1`, 22.2%.
With `COc1cc2nc(NCc3cc(C)on3)nc(N)c2cc1OC` the figure was 34.1%; with `Cc1nc(C)n(CC2CN(CCCOc3ccccc3)CCO2)n1` (stereo unspecified), -2.14%; with `NCC(c1cccnc1)N1CCOCC1` (stereo unspecified), -4.26%.
With `CN(CC(C)(CO)CO)C(=O)Nc1cc(F)cc(F)c1`, the cytotoxicity at 70.5 h turned out to be 2.39%.
With `Cc1nc(NS(=O)(=O)c2ccc(C)c(Br)c2)no1` the figure was -12.1%; with `CS(=O)(=O)NCCC(=O)N1CCC(Cc2ccc(CO)cc2)C1` (stereo unspecified), 1.14%; with `O=C(COC1CCCC1)NS(=O)(=O)c1ccc2c(c1)OCCCO2`, -6.27%.
With `COCC1CN(Cc2cccnc2OC)Cc2cnn(C)c21` (stereo unspecified) the figure was 6.07%; with `Cn1cc(NS(=O)(=O)c2ccc(OC(F)(F)F)cc2)ccc1=O`, 18%; with `CC(=O)N1CCCC1c1nc(CN(C)C(=O)C(C)C)cc(N(C)C)n1` (stereo unspecified), -4.11%.
As for `Fc1cccnc1O[C@@H]1CC[C@H]2[C@H]1OCCN2Cc1nccs1`, the figure is -2.76%; as for `Cc1ccnc(NC(=O)C2(n3cnnn3)CCCCC2)c1`, -23.1%; as for `CN(C)C(=O)N[C@@H]1CN(S(C)(=O)=O)[C@@H]2CCCO[C@@H]21`, 47.9%.
On to `Cn1cc(N2CCC3(CCCN(Cc4ccc(F)cc4)C3)C2=O)cn1` (stereo unspecified), for which the cytotoxicity at 70.5 h is -12.2%.
As for `CCN(Cc1cnn(C)c1)S(=O)(=O)c1ccc(NC(=O)C(C)(C)C)cc1`, the figure is 2.92%.
With `CN(C)C(=O)c1cnc(-c2ccc3c(c2)OCO3)s1` the figure was 6.77%; with `Cc1ccc(C(=O)N2CCCC(CNS(C)(=O)=O)C2)o1` (stereo unspecified), -7.3%.
Consider `O=C(c1cc(-n2cccn2)ccn1)N(CC(F)(F)F)C1CCCC1`, for which the cytotoxicity at 70.5 h was -2.14%.
As for `CCN(c1ccc(C(=O)N2CCC(C(N)=O)CC2)cc1)S(=O)(=O)CC`, the figure is 15.4%; as for `CCN(CC)C(=O)Cn1ccc2cc(NC(=O)C3CCCO3)ccc21` (stereo unspecified), 7.81%; as for `OCCN1CCC2(CCc3cc(-c4ccoc4)ccc32)CC1`, -2.95%.
As for `Cc1cccc(N2N=C(C(=O)NC(C)CCc3ccco3)CCC2=O)c1` (stereo unspecified), the figure is 28.5%.
As for `Cc1cnn(-c2ccc(C(=O)N3CCCC(n4ccnc4C)C3)cc2)c1` (stereo unspecified), the figure is -4.35%.
As for `O=C(COCC1CCCCO1)N1CCN(Cc2ccccc2F)C(=O)C1` (stereo unspecified), the cytotoxicity at 70.5 h was -1.62%.
Turning to `Cc1cccc(Oc2nccnc2C2CCN(C(=O)C(C)(C)N)CC2)c1`, the cytotoxicity at 70.5 h was -4.07%.
In the case of `Cc1cn(Cc2nc(CC(C)C)nn2-c2ccccn2)c(=O)[nH]c1=O`, the cytotoxicity at 70.5 h was -1.31%.
On to `Cc1nn(C)c2nc(N(CCN(C)C)CC3CCCO3)sc12` (stereo unspecified), for which the cytotoxicity at 70.5 h was -7.79%.
As for `CC(C)Cc1ncc(CNc2cnccc2CO)s1`, the figure is -1.94%.
With `CC(NC(=O)NCCS(C)(=O)=O)c1ccc2c(c1)CCC(=O)N2` (stereo unspecified) the figure was 2.87%.
For the compound `O=c1ccc(-c2ccccc2F)nn1CN1CCCCCC1`, the cytotoxicity at 70.5 h is -4.57%.
Regarding `Cc1nc2n(n1)CC(Nc1cc(C(F)(F)F)nc3ncnn13)CC2` (stereo unspecified), the cytotoxicity at 70.5 h is -0.866%.
For the compound `Cc1nn(-c2ncccn2)c2c1C(c1cnn(C)c1C)SCC(=O)N2` (stereo unspecified), the cytotoxicity at 70.5 h was -22.5%.
With `Cn1cc(CN2CCc3onc(COCC4CC4)c3C2)cn1` the figure was -12.8%; with `CCCc1nnc(NCCn2nc(C)c(Cl)c2C)o1`, -7.4%.
With `CCC(CO)N(Cc1cccs1)C(=O)Cc1ccc(O)cc1` (stereo unspecified) the figure was 16.3%; with `O=C1CCSCC(C(=O)N2CCC3(CC2)OCCO3)N1` (stereo unspecified), -14.2%; with `Cc1nccc([C@H]2C[C@@H]3CCN(C(=O)c4c(C)noc4C)C[C@H]3O2)n1`, 7.48%.
With `NC(=O)N1CCC2(CC1)CC(=O)N(CC1CCCO1)c1ccccc12` (stereo unspecified), the cytotoxicity at 70.5 h was determined as 5.57%.
Consider `CS(=O)(=O)N1CC2(CCN(C3COC3)C2)Cc2ccccc21` (stereo unspecified), for which the cytotoxicity at 70.5 h was -4.95%.
With `Cc1nonc1OCCNC(=O)COc1ccc(F)cc1F` the figure was -12.2%.
As for `CNC(=O)c1ccc(CNC(=O)c2ccc(Cl)cc2F)cc1`, the figure is -11.8%.
With `CCn1nc(C)c(NC(=O)CN2CCC(c3ccccc3Cl)C2)c1C` (stereo unspecified), the cytotoxicity at 70.5 h came to 21.2%.
As for `CCC1=NC(SCC(=O)c2ccc(OC)cc2)c2cc(CC)sc2N1` (stereo unspecified), the figure is 12.2%.
As for `c1ccc(Cc2noc(CN3CCCCC3C3OCCO3)n2)cc1` (stereo unspecified), the figure is -2.71%; as for `O=S(=O)(Cc1ccccc1)NCc1ccnc(O)c1`, 0.635%; as for `CC(C)N1CCC(Cc2cncc(-c3ccccc3C(=O)O)n2)CC1`, -17.6%.
On to `c1cc(CN2CCO[C@H]3[C@H](OCC4CCCC4)CC[C@@H]32)ccn1`, for which the cytotoxicity at 70.5 h is -5.29%.
With `CNc1nc(CNC(=O)Nc2cccc(CSC)c2)cs1` the figure was -3.79%; with `c1ccc2nc(N3CCCC3)c(NCc3nnc4n3CCC4)nc2c1`, -9.07%.
With `c1ccc(-c2cc(CN3CCC(c4ccn[nH]4)CC3)on2)cc1` the figure was -7.56%.
For `CCCNC(=O)C(C)Oc1ccccc1` (stereo unspecified), the cytotoxicity at 70.5 h was -5.34%.
With `CC(CNS(N)(=O)=O)c1ccc(F)c(F)c1` (stereo unspecified) the figure was 3.38%.

Source of the values: ChEMBL document CHEMBL3507680, “University of Dundee, Gates Library screen for HepG2 cell viability”.
